# System: subjects with schizophrenia
# Assay: Change in PANSS total score by rs6435681 (ErbB4) genotype, pooled paliperidone arms of clinical trial Nos. 1-4
# Type: in vivo, human
# Conditions: trials 1-4; for mean reduction in PANSS total score: baseline to end of study
# Experimental: The paliperidone treated arms of clinical trial Nos. 1-4, were pooled and examined for genetic association. The trial Nos. 1-3 were paliperidone ER phase III studies and trial No. 4 was a paliperidone palmitate phase II/III study. To confirm results of the initial genetic association, additional paliperidone treated cohorts, including paliperidone palmitate phase III clinical trial Nos 5-8 and paliperidone ER phase III/IV trial Nos. 9 and 10 were evaluated. The results were further examined with the placebo arms of trial Nos. 1-4 and 6-10, the olanzapine arms of trial Nos. 1-3 and 11, the quetiapine arm of trial No. 9, and the Risperdal Consta arm of the trials No. 5 and 11.
# Trial Nos. 1 to 3 were randomized, double-blind, placebo and active controlled phase III trials that were designed to evaluate efficacy and safety of paliperidone-ER in the acute treatment of subjects with schizophrenia. Schizophrenic patients experiencing active symptoms, with Positive and Negative […] (PANSS) score=70-120, were enrolled and randomized to different treatment groups. The patients received paliperidone-ER of 3 mg, 6 mg, 9 mg, 12 mg, or 15 mg, olanzapine of 10 mg or placebo tablet once daily for 6 weeks. Primary efficacy variable/Primary Time point was changed in the total PANSS score from baseline to endpoint. The baseline value was the measurement from the last visit prior to or including the first day of dosing with double-blind study medication, and the endpoint value was the measurement at the end of the double-blind phase or the last post-baseline observation during the double-blind phase. Detailed clinical study design and outcomes of trial Nos. 1-3 were described elsewhere (Marder et al., Biol Psychiatry. 2007, 62:1363-70; Davidson et al., Schizophr Res. 2007, 93:117-30; Kane et al., Schizophr Res. 2007, 90:147-61. Epub).
# Trial No. 4 was a randomized, double-blind, placebo-controlled phase II/III study to evaluate the efficacy and safety of long-acting injections of paliperidone palmitate at fixed doses of 50 and 100 mg equivalent in subjects with schizophrenia. Subjects were required to have a total PANSS score between 70 and 120 at Screening and between 60 and 120 on Day 1 prior to the start of double-blind treatment. The primary efficacy variable was the change in total PANSS score from the start of the double-blinded treatment period to the last post-randomization assessment in the double-blinded treatment period.
# DNA collected from subjects who consented to the optional pharmacogenomic component of the above clinical trials were analyzed in the genetic study. Briefly, blood samples were collected from subjects and extracted for genomic DNA. […]
structure (smiles),measurement,setting,value
Cc1nc2n(c(=O)c1CCN1CCC(c3noc4cc(F)ccc34)CC1)CCCC2O (stereo not shown) [Paliperidone],mean reduction in PANSS total score,patients with AA genotype at rs6435681 (N=25),0.6
same,patients displaying a 30% or higher reduction in PANSS total score from baseline,patients with AA genotype,8%
same,mean reduction in PANSS total score,patients with GG or GA genotype at rs6435681 (N=659),17.8
same,patients displaying a 30% or higher reduction in PANSS total score from baseline,patients with GG/GA genotype,Twenty-nine
